Measured values: patent US12157741B2, “Macrocyclic inhibitors of DYRK1A” (DANA-FARBER CANCER INSTITUTE, INC., priority 2018, dated 2024)

Legend:
[1] = molecular target: various enzymes (Homo sapiens, UniProt O14578); conditions: CIT; 1 uM
Experimental: (§1) Ambit profiling from Eurofins (formerly Discoverx) was conducted in accordance with the manufacturer's instructions.

[2] = molecular target: various enzymes (Homo sapiens, UniProt P54756); conditions: EPHA5; 1 uM
Experimental: as §1

[3] = molecular target: various enzymes (Homo sapiens, UniProt P57059); conditions: SIK; 1 uM
Experimental: as §1

[4] = molecular target: various enzymes (Homo sapiens, UniProt P78368); conditions: CSNK1G2; 1 uM
Experimental: as §1

[5] = molecular target: T1, various enzymes (Homo sapiens, UniProt Q12852); conditions: DLK; 1 uM
T1 sequence (Q12852 1-859): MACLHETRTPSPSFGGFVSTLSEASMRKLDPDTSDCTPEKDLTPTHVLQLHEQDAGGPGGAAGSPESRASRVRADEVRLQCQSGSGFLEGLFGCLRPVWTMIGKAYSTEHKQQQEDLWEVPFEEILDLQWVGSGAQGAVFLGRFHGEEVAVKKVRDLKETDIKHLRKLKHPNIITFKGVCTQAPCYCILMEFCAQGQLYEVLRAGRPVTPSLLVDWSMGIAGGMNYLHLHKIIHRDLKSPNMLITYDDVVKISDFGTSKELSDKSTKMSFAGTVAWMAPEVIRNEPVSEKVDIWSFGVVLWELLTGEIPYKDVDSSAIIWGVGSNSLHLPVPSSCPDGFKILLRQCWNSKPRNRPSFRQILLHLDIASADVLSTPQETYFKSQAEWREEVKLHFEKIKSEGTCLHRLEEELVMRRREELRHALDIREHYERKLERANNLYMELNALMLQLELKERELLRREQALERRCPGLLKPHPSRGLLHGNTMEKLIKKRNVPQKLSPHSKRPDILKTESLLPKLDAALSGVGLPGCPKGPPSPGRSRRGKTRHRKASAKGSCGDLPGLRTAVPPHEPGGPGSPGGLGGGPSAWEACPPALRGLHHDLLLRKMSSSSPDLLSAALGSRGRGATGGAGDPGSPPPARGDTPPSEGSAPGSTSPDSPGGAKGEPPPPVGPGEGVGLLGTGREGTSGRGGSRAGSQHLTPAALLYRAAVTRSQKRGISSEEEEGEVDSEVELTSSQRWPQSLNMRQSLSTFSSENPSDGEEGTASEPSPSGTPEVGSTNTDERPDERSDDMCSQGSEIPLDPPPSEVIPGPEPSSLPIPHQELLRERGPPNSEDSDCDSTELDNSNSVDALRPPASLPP
Experimental: as §1

[6] = molecular target: T2, various enzymes (Homo sapiens, UniProt Q13043); conditions: MST1; 1 uM
T2 sequence (Q13043 1-487): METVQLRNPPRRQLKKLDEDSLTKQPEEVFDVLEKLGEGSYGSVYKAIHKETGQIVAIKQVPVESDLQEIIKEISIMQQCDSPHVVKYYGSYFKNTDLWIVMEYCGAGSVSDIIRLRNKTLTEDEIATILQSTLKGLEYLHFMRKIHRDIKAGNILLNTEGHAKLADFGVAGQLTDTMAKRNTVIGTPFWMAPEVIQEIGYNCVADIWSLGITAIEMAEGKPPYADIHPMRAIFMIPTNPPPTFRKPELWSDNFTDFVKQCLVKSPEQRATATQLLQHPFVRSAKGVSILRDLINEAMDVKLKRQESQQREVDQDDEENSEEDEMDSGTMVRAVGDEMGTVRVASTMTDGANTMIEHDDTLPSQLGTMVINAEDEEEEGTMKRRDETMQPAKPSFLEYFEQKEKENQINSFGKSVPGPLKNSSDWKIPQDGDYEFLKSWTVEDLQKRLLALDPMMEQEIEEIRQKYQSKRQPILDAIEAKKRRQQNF
Experimental: as §1

[7] = molecular target: T3, various enzymes (Homo sapiens, UniProt Q9H093); conditions: SNARK; 1 uM
T3 sequence (Q9H093 1-628): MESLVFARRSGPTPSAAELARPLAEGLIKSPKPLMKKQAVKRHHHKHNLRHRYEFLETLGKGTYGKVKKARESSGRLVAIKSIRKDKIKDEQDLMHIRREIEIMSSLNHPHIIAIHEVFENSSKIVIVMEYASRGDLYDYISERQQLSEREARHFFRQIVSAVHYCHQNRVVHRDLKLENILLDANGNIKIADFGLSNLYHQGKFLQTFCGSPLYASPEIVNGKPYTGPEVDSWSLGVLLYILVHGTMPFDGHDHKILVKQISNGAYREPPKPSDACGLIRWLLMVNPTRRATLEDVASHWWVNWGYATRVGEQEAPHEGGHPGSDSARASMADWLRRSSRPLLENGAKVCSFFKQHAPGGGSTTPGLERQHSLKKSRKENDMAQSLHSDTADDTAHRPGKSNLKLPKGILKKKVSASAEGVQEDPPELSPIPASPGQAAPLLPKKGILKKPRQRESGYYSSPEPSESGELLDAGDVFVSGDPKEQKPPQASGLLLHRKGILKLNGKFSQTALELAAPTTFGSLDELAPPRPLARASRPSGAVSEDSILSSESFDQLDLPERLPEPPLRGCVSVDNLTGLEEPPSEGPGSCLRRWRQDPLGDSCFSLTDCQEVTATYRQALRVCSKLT
Experimental: as §1

Sequence of various enzymes (Homo sapiens, UniProt P57059) (P57059 whole entry): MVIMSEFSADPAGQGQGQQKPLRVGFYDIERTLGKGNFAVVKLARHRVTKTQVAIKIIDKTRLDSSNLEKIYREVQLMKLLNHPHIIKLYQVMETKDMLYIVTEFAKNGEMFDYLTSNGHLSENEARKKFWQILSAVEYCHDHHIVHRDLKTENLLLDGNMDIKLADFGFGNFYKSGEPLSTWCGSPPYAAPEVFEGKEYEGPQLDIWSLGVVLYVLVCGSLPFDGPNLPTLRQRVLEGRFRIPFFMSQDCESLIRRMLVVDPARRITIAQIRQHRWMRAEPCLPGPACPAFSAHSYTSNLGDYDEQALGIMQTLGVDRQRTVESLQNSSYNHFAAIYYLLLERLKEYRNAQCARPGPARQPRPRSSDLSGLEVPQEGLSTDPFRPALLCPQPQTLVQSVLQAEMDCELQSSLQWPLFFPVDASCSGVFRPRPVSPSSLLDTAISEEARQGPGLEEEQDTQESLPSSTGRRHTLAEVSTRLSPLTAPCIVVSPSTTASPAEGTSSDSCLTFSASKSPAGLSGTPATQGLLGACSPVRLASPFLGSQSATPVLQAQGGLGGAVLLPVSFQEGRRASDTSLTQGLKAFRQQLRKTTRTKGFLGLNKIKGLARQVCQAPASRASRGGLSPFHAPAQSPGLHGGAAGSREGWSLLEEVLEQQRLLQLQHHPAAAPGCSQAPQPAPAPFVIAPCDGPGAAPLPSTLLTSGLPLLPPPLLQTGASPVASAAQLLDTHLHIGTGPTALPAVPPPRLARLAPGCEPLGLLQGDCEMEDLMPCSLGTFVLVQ
Sequence of various enzymes (Homo sapiens, UniProt P78368) (P78368 whole entry): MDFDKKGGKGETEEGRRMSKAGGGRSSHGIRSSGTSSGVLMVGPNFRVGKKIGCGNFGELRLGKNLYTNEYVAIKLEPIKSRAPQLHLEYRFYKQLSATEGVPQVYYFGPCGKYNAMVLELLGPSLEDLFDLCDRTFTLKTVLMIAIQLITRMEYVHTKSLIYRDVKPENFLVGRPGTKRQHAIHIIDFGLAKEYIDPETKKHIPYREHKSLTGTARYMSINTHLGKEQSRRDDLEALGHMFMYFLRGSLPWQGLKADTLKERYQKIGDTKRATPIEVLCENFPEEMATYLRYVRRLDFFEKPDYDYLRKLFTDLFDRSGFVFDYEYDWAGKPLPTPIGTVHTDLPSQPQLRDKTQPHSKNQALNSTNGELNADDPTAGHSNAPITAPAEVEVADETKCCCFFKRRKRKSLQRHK
Sequence of various enzymes (Homo sapiens, UniProt P54756) (P54756 25-1037): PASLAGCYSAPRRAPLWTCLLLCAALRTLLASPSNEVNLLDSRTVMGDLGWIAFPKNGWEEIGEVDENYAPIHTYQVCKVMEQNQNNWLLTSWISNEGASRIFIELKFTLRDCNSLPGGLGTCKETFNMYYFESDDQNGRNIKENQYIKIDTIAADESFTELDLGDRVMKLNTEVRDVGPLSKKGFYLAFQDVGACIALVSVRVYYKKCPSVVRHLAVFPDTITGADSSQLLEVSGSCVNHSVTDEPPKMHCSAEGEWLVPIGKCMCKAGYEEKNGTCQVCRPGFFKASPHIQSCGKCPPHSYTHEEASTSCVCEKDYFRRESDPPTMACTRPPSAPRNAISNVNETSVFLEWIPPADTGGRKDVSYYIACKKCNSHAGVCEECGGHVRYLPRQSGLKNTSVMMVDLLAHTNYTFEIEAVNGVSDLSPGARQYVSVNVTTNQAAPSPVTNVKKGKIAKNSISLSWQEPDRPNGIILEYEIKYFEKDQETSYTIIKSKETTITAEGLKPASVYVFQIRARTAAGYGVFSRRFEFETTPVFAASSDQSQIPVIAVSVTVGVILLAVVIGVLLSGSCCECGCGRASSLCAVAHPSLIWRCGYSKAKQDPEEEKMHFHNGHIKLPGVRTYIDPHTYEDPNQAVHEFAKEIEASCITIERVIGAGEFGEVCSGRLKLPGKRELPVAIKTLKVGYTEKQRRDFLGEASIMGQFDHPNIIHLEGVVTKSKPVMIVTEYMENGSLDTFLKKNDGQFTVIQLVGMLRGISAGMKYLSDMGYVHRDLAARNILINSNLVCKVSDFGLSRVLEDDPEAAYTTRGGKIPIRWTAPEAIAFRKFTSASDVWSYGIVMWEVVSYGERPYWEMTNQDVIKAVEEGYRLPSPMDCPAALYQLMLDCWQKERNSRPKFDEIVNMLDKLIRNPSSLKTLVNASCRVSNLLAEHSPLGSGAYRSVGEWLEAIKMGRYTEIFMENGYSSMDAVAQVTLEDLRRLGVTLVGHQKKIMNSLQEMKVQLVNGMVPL
Sequence of various enzymes (Homo sapiens, UniProt O14578) (O14578 whole entry): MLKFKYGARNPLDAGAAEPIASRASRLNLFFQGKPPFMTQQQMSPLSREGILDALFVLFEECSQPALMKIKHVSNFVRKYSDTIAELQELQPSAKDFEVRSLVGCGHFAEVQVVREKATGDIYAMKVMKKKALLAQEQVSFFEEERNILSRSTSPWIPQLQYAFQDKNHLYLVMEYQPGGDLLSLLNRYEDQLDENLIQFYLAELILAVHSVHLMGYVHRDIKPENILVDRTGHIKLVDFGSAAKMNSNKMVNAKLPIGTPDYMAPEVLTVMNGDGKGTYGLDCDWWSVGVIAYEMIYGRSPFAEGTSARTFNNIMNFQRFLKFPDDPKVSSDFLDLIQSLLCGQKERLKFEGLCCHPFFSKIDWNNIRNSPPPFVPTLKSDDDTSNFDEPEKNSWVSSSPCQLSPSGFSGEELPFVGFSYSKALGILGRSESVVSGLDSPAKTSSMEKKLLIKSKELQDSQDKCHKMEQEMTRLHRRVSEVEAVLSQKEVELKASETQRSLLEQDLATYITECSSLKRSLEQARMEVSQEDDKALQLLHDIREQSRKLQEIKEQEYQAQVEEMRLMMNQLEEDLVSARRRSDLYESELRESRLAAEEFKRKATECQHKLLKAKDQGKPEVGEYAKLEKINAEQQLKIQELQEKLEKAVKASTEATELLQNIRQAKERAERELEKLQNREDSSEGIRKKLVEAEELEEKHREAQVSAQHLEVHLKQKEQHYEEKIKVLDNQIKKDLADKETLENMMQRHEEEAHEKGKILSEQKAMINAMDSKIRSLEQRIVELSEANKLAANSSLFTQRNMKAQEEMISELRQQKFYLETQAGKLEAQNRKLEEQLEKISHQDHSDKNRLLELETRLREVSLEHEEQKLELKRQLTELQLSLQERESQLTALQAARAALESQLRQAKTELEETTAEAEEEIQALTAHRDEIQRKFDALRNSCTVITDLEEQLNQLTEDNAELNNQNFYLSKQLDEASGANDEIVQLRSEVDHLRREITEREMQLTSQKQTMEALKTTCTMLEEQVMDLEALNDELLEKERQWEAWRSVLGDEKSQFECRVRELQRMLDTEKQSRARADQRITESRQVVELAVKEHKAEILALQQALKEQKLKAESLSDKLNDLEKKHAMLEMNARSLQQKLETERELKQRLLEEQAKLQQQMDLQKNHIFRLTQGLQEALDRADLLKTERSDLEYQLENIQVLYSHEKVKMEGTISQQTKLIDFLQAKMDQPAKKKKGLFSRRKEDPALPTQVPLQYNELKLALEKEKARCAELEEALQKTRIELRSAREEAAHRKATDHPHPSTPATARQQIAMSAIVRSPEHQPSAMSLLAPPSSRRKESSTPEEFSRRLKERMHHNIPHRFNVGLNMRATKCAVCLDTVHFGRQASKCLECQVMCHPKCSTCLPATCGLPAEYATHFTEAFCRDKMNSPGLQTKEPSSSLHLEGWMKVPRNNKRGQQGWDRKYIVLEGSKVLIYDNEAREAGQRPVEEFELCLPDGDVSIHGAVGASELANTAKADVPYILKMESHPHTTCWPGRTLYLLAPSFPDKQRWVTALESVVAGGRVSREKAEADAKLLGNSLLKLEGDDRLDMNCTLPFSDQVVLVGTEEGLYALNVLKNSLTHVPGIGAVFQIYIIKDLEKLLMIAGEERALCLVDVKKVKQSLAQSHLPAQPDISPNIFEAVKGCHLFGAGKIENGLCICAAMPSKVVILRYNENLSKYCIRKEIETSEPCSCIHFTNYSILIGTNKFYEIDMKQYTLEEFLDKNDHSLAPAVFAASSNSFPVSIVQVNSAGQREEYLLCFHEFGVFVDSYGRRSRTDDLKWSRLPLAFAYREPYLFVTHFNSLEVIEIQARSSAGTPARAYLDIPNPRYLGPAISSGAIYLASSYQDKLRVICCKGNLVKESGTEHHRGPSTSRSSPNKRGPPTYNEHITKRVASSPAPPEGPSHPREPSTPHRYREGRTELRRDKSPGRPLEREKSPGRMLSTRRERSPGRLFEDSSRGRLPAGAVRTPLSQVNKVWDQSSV

SMILES | Ambit profiling [1] | Ambit profiling [2] | Ambit profiling [3] | Ambit profiling [4] | Ambit profiling [5] | Ambit profiling [6] | Ambit profiling [7]
CN1Cc2nn(C)cc2-c2cnc3[nH]cc(c3c2)-c2cnn(c2)CCCC1=O [Compound 41, (Z)-31,5-dimethyl-11H,21H,31H-5-aza-2(3,5)-pyrrolo[2,3-b]pyridina-1(4,1),3(4,3)-dipyrazolacyclononaphan-6-one] | 99 | 58 | 84 | 100 | 23 | 4.7 | 4.3
CN1Cc2nn(C)c(C#N)c2-c2cnc3[nH]cc(c3c2)-c2cn(nc2C(F)(F)F)CCCC1=O [Compound 48, (Z)-31,5-dimethyl-6-oxo-13-(trifluoromethyl)-11H,21H,31H-5-aza-2(3,5)-pyrrolo[2,3-b]pyridina-1(4,1),3(4,3)-dipyrazolacyclononaphane-35-carbonitrile] | 74 | 97 | 59 | 100 | 100 | 100 | 100
